{"source": "paper PMC11409674", "about": "“Raffinocyclicin is a novel plasmid-encoded circular bacteriocin produced by Lactococcus raffinolactis with broad-spectrum activity against many gram-positive food pathogens” (Applied and environmental microbiology, 2024)", "origin": "cited, not measured here", "tested_on": "L. lactis", "set-up": "method as in 7 sources, ref 29 = [29]; PMID 18552180; doi:10.1128/AEM.00817-08; 29 Martin-Visscher LA van Belkum MJ Garneau-Tsodikova S Whittal RM Zheng J McMullen LM Vederas JC Isolation and characterization of carnocyclin A, a novel circular bacteriocin produced by Carnobacteri ||| ref 30 = [30]; PMID 29177092; doi:10.1099/mgen.0.000134; 30 van Heel AJ Montalban-Lopez M Oliveau Q Kuipers OP Genome-guided identification of novel head-to-tail cyclized antimicrobial peptides, exemplified by the discovery of pumilarin Microb Genom 2017 3 ||| ref 31 = [31]; PMID 29030449; doi:10.1128/AEM.01801-17; 31 Borrero J Kelly E O’Connor PM Kelleher P Scully C Cotter PD Mahony J van Sinderen D Plantaricyclin a, a novel circular bacteriocin produced by Lactobacillus plantarum NI326: purification, character ||| ref 32 = [32]; PMID 17464077; doi:10.1099/mic.0.2006/005967-0; 32 Wirawan RE Swanson KM Kleffmann T Jack RW Tagg JR Uberolysin: a novel cyclic bacteriocin produced by Streptococcus uberis Microbiology 2007 153 1619 1630 10.1099/mic.0.2006/005967-0 17464077 ||| ref 27 = [27]; PMID 21057028; doi:10.1128/AEM.01173-10; 27 Borrero J Brede DA Skaugen M Diep DB Herranz C Nes IF Cintas LM Hernández PE Characterization of garvicin ML, a novel circular bacteriocin produced by Lactococcus garvieae DCC43, isolated from mall ||| ...", "details": "five strains of L. lactis; cited from earlier work"}
{"substance": "plantaricyclin A", "values": [{"measurement": "inhibition of L. lactis strains tested", "result": "inhibited all five strains"}]}
